Test [1] deals with PD-L1 aAPC/CHO-K1 cells and Jurkat-PD-1-NFAT effector cells. Description: Nuclear factor of activated T-cells (NFAT) assay. Type of test: cell-based. The essentials: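 CHO-K1 cells expressing PD-L1 aAPC were co-cultured with Jurkat-PD-1-NFAT effector cells in RPMI 1640 with 1% FBS and compound (0.4% DMSO; top concentration 2 μM) for 24 h at 37 °C. Bio-Glo luminescence was read, fold induction normalised to DMSO wells, and EC50 fitted from percent of control compound activity.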

The subject of test [2] is U2OS/PD-L1 cells and Jurkat-PD-1-SHP cells. The experiment in a line: Src homology region 2 domain-containing phosphatase (SHP) assay. Type of test: cell-based. An outline of the steps:
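U2OS/PD-L1 and Jurkat-PD-1-SHP cells (5000 each per well) were co-incubated with compound for 2 h at 37 °C in RPMI1640 with 1% FBS, 0.05% DMSO final. PathHunter chemiluminescence was read after 1 h at room temperature, and IC50 was fitted from percent of DMSO-control activity.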

Test [3] concerns the target PD-1/PD-L1 protein/protein interaction (recombinant human PD-L1 and human PD-1) (Homo sapiens (Human), UniProt Q9NZQ7). Description: Homogeneous Time-Resolved Fluorescence (HTRF) PD-1/PD-L1 binding assay. An outline of the steps:
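Human PD-L1 (19-238, C-His; 10 nM final) and PD-1 (25-167, C-Fc; 3 nM final) preincubated 40 min with inhibitor in PBS pH 7.4, 0.05% Tween-20, 0.1% BSA, 1% DMSO, 25 °C. Eu-anti-human IgG (1 nM) and anti-His-APC (20 nM) added for 60 min; 665/620 nm ratio; IC50 from percent-control curves.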
(In general: TR-FRET usually uses a lanthanide donor and a delayed reading to cut background.)

Test [4] addresses PD-L1 (Homo sapiens (Human), UniProt Q9NZQ7). Description: PD-L1 whole blood internalization assay. To be noted: 24 HR, PD-L1 expression on CD14+ cells, human interferon γ. Type of test: cell-based. As for the experimental part:
Example D. PD-L1 Whole Blood Internalization Assay
To determine PD-L1 internalization in human whole blood, normal human blood (Biological Specialty Corp, Colmar. Pa.) was incubated in the presence or absence of a concentration range of test compounds and 1 ng/ml human interferon γ (R&D Systems Inc. Minn. […] Blood was then stained with PD-L1 (MIH1, eBioscience; or BD Biosciences San Jose, Calif.), CD14 (Life Technologies, Carlsbad, Calif.) for 30 minutes in the dark at room temperature. Whole Blood/red cells were lysed/fixed (lysis buffer BD Biosciences) for 5 minutes at 37° C. in the dark and then centrifuged at 1600 RPM for 5 minutes. Cells were resuspended in Stain Buffer (BD Bioscience, San Jose, Calif.) and transferred into 96 well round bottom plates (Corning). Cells were gated on CD14+(BD Biosciences) and PD-L1 expression determined by mean fluorescence intensity (MFI) (BD LSRFortessa™ X-20). IC50 determination was performed by fitting the curve of compound percent inhibition versus the log of the compound concentration using the GraphPad Prism 7.0 software.

Structures are written as SMILES. Where two headings read alike, the source gives them in different places. Where only a bound is given, the exact number is not on record here.

Sequence of PD-L1 (Q9NZQ7 19-290): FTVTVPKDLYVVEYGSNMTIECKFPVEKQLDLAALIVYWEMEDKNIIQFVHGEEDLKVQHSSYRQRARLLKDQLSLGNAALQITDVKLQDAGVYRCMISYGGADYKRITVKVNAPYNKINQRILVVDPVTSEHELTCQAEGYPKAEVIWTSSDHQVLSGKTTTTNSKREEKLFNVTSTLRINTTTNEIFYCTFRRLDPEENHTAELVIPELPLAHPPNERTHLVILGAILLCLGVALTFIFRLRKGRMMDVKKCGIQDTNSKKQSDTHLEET
Sequence of PD-1/PD-L1 protein/protein interaction (recombinant human PD-L1 and human PD-1) (Q9NZQ7 19-238): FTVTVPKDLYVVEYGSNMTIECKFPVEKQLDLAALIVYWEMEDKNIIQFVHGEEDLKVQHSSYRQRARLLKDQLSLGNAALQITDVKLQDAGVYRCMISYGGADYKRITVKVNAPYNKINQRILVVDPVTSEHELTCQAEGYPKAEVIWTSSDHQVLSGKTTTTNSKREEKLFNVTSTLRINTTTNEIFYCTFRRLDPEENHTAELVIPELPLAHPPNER

For `Cn1c(C(=O)Nc2cccc(-c3cccc(NC(=O)c4nc5c(n4C)CCN(C4CCC(O)CC4)C5)c3Cl)c2Cl)nc2c1CCN(CCC13CCC(C(=O)O)(CC1)C3)C2` (single isomer, unassigned) [60 (compound 2), 4-(2-(2-((2,2′-dichloro-3′-(5-(4-hydroxycyclohexyl)-1-methyl-4,5,6,7-tetrahydro-1H-imidazo[4,5-c]pyridine-2-carboxamido)-[1,1′-biphenyl]-3-yl)carbamoyl)-1-methyl-1,4,6,7-tetrahydro-5H-imidazo[4,5-c]pyridin-5-yl)ethyl)bicyclo[2.2.1]heptane-1-carboxylic Acid], the EC50 in test [1] was ≤ 10 nM. Moreover, the IC50 is ≤ 10 nM in test [2], ≤ 5 nM in test [3] and 10 to 100 nM in test [4].

With `Cc1c(NC(=O)c2nc3c(n2C)CCN(C2CCC(O)CC2)C3)cccc1-c1cccc(NC(=O)c2nc3c(n2C)CCN(CCC24CCC(C(=O)O)(CC2)C4)C3)c1Cl` (single isomer, unassigned) [61 (compound 1), 4-(2-(2-((2-chloro-3′-(5-(4-hydroxycyclohexyl)-1-methyl-4,5,6,7-tetrahydro-1H-imidazo[4,5-c]pyridine-2-carboxamido)-2′-methyl-[1,1′-biphenyl]-3-yl)carbamoyl)-1-methyl-1,4,6,7-tetrahydro-5H-imidazo[4,5-c]pyridin-5-yl)ethyl)bicyclo[2.2.1]heptane-1-carboxylic acid], the concentration for a half-maximal effect (EC50) in test [1] (Cricetulus griseus, CHO-K1) lay in the range of 10 to 100 nM. The IC50 in test [2] (Homo sapiens, U2OS) was ≤ 10 nM; in test [3], ≤ 5 nM; in test [4], 10 to 100 nM.

`Cn1c(C(=O)Nc2cccc(-c3cccc(NC(=O)c4nc5c(n4C)CCN(CCC46CCC(C(=O)O)(CC4)C6)C5)c3Cl)c2Cl)nc2c1CCNC2` [Example 1, 4-(2-(2-((2,2′-dichloro-3′-(1-methyl-4,5,6,7-tetrahydro-1H-imidazo[4,5-c]pyridine-2-carboxamido)-[1,1′-biphenyl]-3-yl)carbamoyl)-1-methyl-1,4,6,7-tetrahydro-5H-imidazo[4,5-c]pyridin-5-yl)ethyl)bicyclo[2.2.1]heptane-1-carboxylic Acid]: the concentration giving a half-maximal response (EC50) in test [1] (Cricetulus griseus, CHO-K1) is 10 to 100 nM. Also, the IC50 is ≤ 10 nM in test [2] (Homo sapiens, U2OS); ≤ 5 nM in test [3]; ≤ 10 nM in test [4].

With `Cn1c(C(=O)Nc2cccc(-c3cccc(NC(=O)c4nc5c(n4C)CCN(C4CCOCC4)C5)c3Cl)c2Cl)nc2c1CCN(CCC13CCC(C(=O)O)(CC1)C3)C2` [Example 2, 4-(2-(2-((2,2′-dichloro-3′-(1-methyl-5-(tetrahydro-2H-pyran-4-yl)-4,5,6,7-tetrahydro-1H-imidazo[4,5-c]pyridine-2-carboxamido)-[1,1′-biphenyl]-3-yl)carbamoyl)-1-methyl-1,4,6,7-tetrahydro-5H-imidazo[4,5-c]pyridin-5-yl)ethyl)bicyclo[2.2.1]heptane-1-carboxylic Acid], in test [1] (Cricetulus griseus, CHO-K1), the EC50 was in the range of 10 to 100 nM. Moreover, the IC50 is ≤ 10 nM in test [2] (Homo sapiens, U2OS); ≤ 5 nM in test [3]; 10 to 100 nM in test [4].

`Cn1c(C(=O)Nc2cccc(-c3cccc(NC(=O)c4nc5c(n4C)CCN(C4CCN(S(N)(=O)=O)CC4)C5)c3Cl)c2Cl)nc2c1CCN(CCC13CCC(C(=O)O)(CC1)C3)C2` [Example 8, 4-(2-(2-((2,2′-dichloro-3′-(1-methyl-5-(1-sulfamoylpiperidin-4-yl)-4,5,6,7-tetrahydro-1H-imidazo[4,5-c]pyridine-2-carboxamido)-[1,1′-biphenyl]-3-yl)carbamoyl)-1-methyl-1,4,6,7-tetrahydro-5H-imidazo[4,5-c]pyridin-5-yl)ethyl)bicyclo[2.2.1]heptane-1-carboxylic acid] showed an EC50 in test [1] (Cricetulus griseus, CHO-K1) of 10 to 100 nM. Besides, the IC50 in test [2] (Homo sapiens, U2OS) was ≤ 10 nM; in test [3] it was ≤ 5 nM; in test [4], 100 to 500 nM.

In test [1] (Cricetulus griseus, CHO-K1), `Cn1c(C(=O)Nc2cccc(-c3cccc(NC(=O)c4nc5c(n4C)CCN(Cc4cc[nH]n4)C5)c3Cl)c2Cl)nc2c1CCN(CCC13CCC(C(=O)O)(CC1)C3)C2` [Example 9, 4-(2-(2-((3′-(5-((1H-pyrazol-3-yl)methyl)-1-methyl-4,5,6,7-tetrahydro-1H-imidazo[4,5-c]pyridine-2-carboxamido)-2,2′-dichloro-[1,1′-biphenyl]-3-yl)carbamoyl)-1-methyl-1,4,6,7-tetrahydro-5H-imidazo[4,5-c]pyridin-5-yl)ethyl)bicyclo[2.2.1]heptane-1-carboxylic acid] yielded an EC50 of 10 to 100 nM. In addition, the IC50 in test [2] (Homo sapiens, U2OS) was ≤ 10 nM; in test [3], ≤ 5 nM; in test [4], 10 to 100 nM.

`Cn1c(C(=O)Nc2cccc(-c3cccc(NC(=O)c4nc5c(n4C)CCN(C(CO)CO)C5)c3Cl)c2Cl)nc2c1CCN(CCC13CCC(C(=O)O)(CC1)C3)C2` [Example 10, 4-(2-(2-((2,2′-dichloro-3′-(5-(1,3-dihydroxypropan-2-yl)-1-methyl-4,5,6,7-tetrahydro-1H-imidazo[4,5-c]pyridine-2-carboxamido)-[1,1′-biphenyl]-3-yl)carbamoyl)-1-methyl-1,4,6,7-tetrahydro-5H-imidazo[4,5-c]pyridin-5-yl)ethyl)bicyclo[2.2.1]heptane-1-carboxylic acid] displayed an EC50 in test [1] (Cricetulus griseus, CHO-K1) of 10 to 100 nM. In addition, the IC50 in test [2] (Homo sapiens, U2OS) is ≤ 10 nM; in test [3], ≤ 5 nM; in test [4], 10 to 100 nM.

Molecule `Cn1c(C(=O)Nc2cccc(-c3cccc(NC(=O)c4nc5c(n4C)CCN(C[C@@H](O)CO)C5)c3Cl)c2Cl)nc2c1CCN(CCC13CCC(C(=O)O)(CC1)C3)C2` [Example 11, (R)-4-(2-(2-((2,2′-dichloro-3′-(5-(2,3-dihydroxypropyl)-1-methyl-4,5,6,7-tetrahydro-1H-imidazo[4,5-c]pyridine-2-carboxamido)-[1,1′-biphenyl]-3-yl)carbamoyl)-1-methyl-1,4,6,7-tetrahydro-5H-imidazo[4,5-c]pyridin-5-yl)ethyl)bicyclo[2.2.1]heptane-1-carboxylic acid] displayed an EC50 in test [1] (Cricetulus griseus, CHO-K1) of 10 to 100 nM. Moreover, the IC50 fell in the range of 10 to 100 nM in test [2] (Homo sapiens, U2OS); 5 to 10 nM in test [3]; 100 to 500 nM in test [4].

For `Cn1c(C(=O)Nc2cccc(-c3cccc(NC(=O)c4nc5c(n4C)CCN(C[C@H](O)CO)C5)c3Cl)c2Cl)nc2c1CCN(CCC13CCC(C(=O)O)(CC1)C3)C2` [Example 12, (S)-4-(2-(2-((2,2′-dichloro-3′-(5-(2,3-dihydroxypropyl)-1-methyl-4,5,6,7-tetrahydro-1H-imidazo[4,5-c]pyridine-2-carboxamido)-[1,1′-biphenyl]-3-yl)carbamoyl)-1-methyl-1,4,6,7-tetrahydro-5H-imidazo[4,5-c]pyridin-5-yl)ethyl)bicyclo[2.2.1]heptane-1-carboxylic acid], the EC50 in test [1] (Cricetulus griseus, CHO-K1) lay in the range of 10 to 100 nM. For the same molecule, the IC50 is ≤ 10 nM in test [2] (Homo sapiens, U2OS); ≤ 5 nM in test [3]; 10 to 100 nM in test [4].

`C[C@@H](O)CN1CCc2c(nc(C(=O)Nc3cccc(-c4cccc(NC(=O)c5nc6c(n5C)CCN(CCC57CCC(C(=O)O)(CC5)C7)C6)c4Cl)c3Cl)n2C)C1` [Example 13, (R)-4-(2-(2-((2,2′-dichloro-3′-(5-(2-hydroxypropyl)-1-methyl-4,5,6,7-tetrahydro-1H-imidazo[4,5-c]pyridine-2-carboxamido)-[1,1′-biphenyl]-3-yl)carbamoyl)-1-methyl-1,4,6,7-tetrahydro-5H-imidazo[4,5-c]pyridin-5-yl)ethyl)bicyclo[2.2.1]heptane-1-carboxylic Acid]: in test [1] (Cricetulus griseus, CHO-K1), the EC50 was ≤ 10 nM. Further, the IC50 in test [2] (Homo sapiens, U2OS) is ≤ 10 nM; in test [3], ≤ 5 nM; in test [4], 10 to 100 nM.

Molecule `C[C@H](O)CN1CCc2c(nc(C(=O)Nc3cccc(-c4cccc(NC(=O)c5nc6c(n5C)CCN(CCC57CCC(C(=O)O)(CC5)C7)C6)c4Cl)c3Cl)n2C)C1` [Example 14, (S)-4-(2-(2-((2,2′-dichloro-3′-(5-(2-hydroxypropyl)-1-methyl-4,5,6,7-tetrahydro-1H-imidazo[4,5-c]pyridine-2-carboxamido)-[1,1′-biphenyl]-3-yl)carbamoyl)-1-methyl-1,4,6,7-tetrahydro-5H-imidazo[4,5-c]pyridin-5-yl)ethyl)bicyclo[2.2.1]heptane-1-carboxylic acid] showed an EC50 in test [1] (Cricetulus griseus, CHO-K1) of 10 to 100 nM. In addition, the IC50 in test [2] (Homo sapiens, U2OS) was ≤ 10 nM; in test [3], ≤ 5 nM; in test [4], 10 to 100 nM.

As a reminder, the EC50 is the concentration giving half of the maximal effect. Higher therefore signals a need for much substance. The IC50 is the concentration that gives 50% inhibition.

The values are drawn from US10618916B2, “Heterocyclic compounds as immunomodulators” (Incyte Corporation, priority 2018, dated 2020).
